Consider eleven compounds from US7834141B1, “Non-mammalian GnRH analogs and uses thereof in tumor cell growth regulation and cancer therapy” (priority 2000, dated 2010).

Where two headings read alike, the source gives them in different places. Where a SMILES comes first, the peptide text is derived from it.

The test system of data set [1] is chorionic post-proline peptidase. Put plainly: Competitive inhibition of mammalian GnRH degradation by chorionic post-proline peptidase (enzymatic activity assay, RIA of remaining substrate). The note with it: for relative potency of inhibition of chorionic post-proline peptidase activity compared to that for GnRH: substrate mammalian GnRH, GnRH = 1.
Procedure: (§1) Using the incubation system developed for chorionic post-proline peptidase activity, the degradation of GnRH was tested. Each of these analogs (SEQ ID NO: 2, SEQ ID NO: 4 and SEQ ID NO: 7) were first studied for their ability to act as a competitive inhibitor of GnRH for chorionic post-proline peptidase activity using the enzymatic activity assay as described previously (103). […] The reaction was stopped by heating at 85° C. for 10 minutes. […] The product formed, i.e. the N-terminal nonapeptide of GnRH, was calculated by subtraction, and its inverse plotted against the inverse of the original substrate concentrations to determine the Ks of the competition. The Ki was determined by plotting the inverse of the product that formed versus the inhibitor used.
The subject of data set [2] is MCF-7 breast cancer cells. Put plainly: MCF-7 breast cancer cell culture viability, Alamar Blue assay. It counts as cell-based, human. The note with it: for inhibition of cell proliferation (cell viability, Alamar Blue): MCF-7, 24 hours of incubation, dose-response; for inhibition of cell proliferation: MCF-7, 48 hours of incubation. As to the method:
This system allows for replicated extended activity studies.
The bio-potency studies were done with a MCF-7 breast cancer cell culture system and the cell viability as a measure of survival was assessed using the Alamar Blue assay. The percent difference in the Alamar Blue optical density (OD) readings at 570 and 600 nm in the treated and untreated controls was determined. […] A dose-response study in quadruplicate cultures was performed. Cell viability was assessed after 24 and 48 hours of incubation with the activity agent.
A general note: The colour change of resazurin is a common sign of viable cells or microbes.

Data set [3] deals with GnRH receptors on the cells of MCF-7 breast cancer cells. As to the kind of experiment: Competitive binding of I^125-D-Arg(6)-Chicken II GnRH-aza-Gly(10)-amide to MCF-7 breast cancer cells. Details: species or system human. The note with it: for competitive inhibition of I^125-D-Arg(6)-Chicken II GnRH-aza-Gly(10)-amide binding (rank of potency): MCF-7 cells, 24 hours at room temperature; for receptor potency (in words): receptor test not given. As to the method:
GnRH receptors on the cells of MCF-7 breast cancer cells were studied. The cells were plated on 96 wells and grown to confluency in base medium (M3D:Fetal Bovine Serum [9:1]). Prior to the experiment the cells were down shifted to M3D:Fetal Bovine Serum [99:1] and then to serum-free medium. […] Addition of enzyme inhibitors of the endogenous post-proline peptidase and other peptidases were used as well as agents for receptor stabilization. Receptor bound label was separated by centrifugation. The binding of the non-mammalian GnRH analog and its ability to regulate the tumor cells' GnRH receptor was compared. […] This was followed by Buserilin. […] This indicated the high innate affinity of this isoform of GnRH for the tumor GnRH receptor. It is believed by Applicants that the same or similar results could be obtained using other non-mammalian GnRH isomers or analogs with similar amino acid structure as Chicken II GnRH such as but not limited to Salmon GnRH, Herring GnRH, Catfish GnRH, or Dogfish GnRH.

The test system of data set [4] is MCF-7 breast cancer cells. As to the kind of experiment: Degradation of GnRH and analogs by tumor tissue cells, with or without peptidase inhibitors. The data set is classed as in vitro ADME, human. The text has this: Post-Proline Peptidase Stability Studies: As mentioned earlier, the post-proline peptidase is important in actively degrading peptides that contain a proline residue. GnRH is such a peptide. Initially the enzymatic activity of the tumor cell was studied. Tumor tissue cells and their spent media were studied for enzyme activity. In particular, examination was made for the degradation of GnRH both with and without specific post-proline and endopeptidase activity inhibitors to determine the specificity of the tumor enzymatic activity.
Chorionic post-proline peptidase is a peptidase with high specificity for the degradation of GnRH at the proline-glycine bond, but can also degrade other GnRH species containing this bond.

For data set [5], the system named is chorionic post-proline peptidase.
Procedure: as §1

Regarding Antide, in data set [1], the “degradation by chorionic post-proline peptidase (in words)” value (from here on “degradation … (in words)”) is “degraded with reduced activity”, the “potency as competitor for chorionic post-proline peptidase compared to GnRH (in words)” value is “three fold less potent than GnRH” and the “relative potency of inhibition of chorionic post-proline peptidase activity compared to that for GnRH” value is 0.6.

Take `N=C(N)NCCC[C@@H](NC(=O)[C@H](Cc1c[nH]cn1)NC(=O)[C@H](CO)NC(=O)[C@H](Cc1c[nH]c2ccccc12)NC(=O)[C@H](Cc1c[nH]cn1)NC(=O)[C@@H]1CCC(=O)N1)C(=O)N[C@@H](Cc1c[nH]c2ccccc12)C(=O)N[C@@H](Cc1ccc(O)cc1)C(=O)N1CCC[C@H]1C(=O)NNC(N)=O` [D-Arg(6)-Chicken II GnRH-aza-Gly(10)-amide] (HELM PEPTIDE1{[Glp].H.W.S.H.[dR].W.Y.P.[O=C(NN[*:1])[*:2]].[am]}$$$$V2.0): the “degradation … (in words)” value in data set [1] is given as “resistant to degradation”. In data set [2], the “inhibition of cell proliferation (cell viability, Alamar Blue)” value (“inhibition … (cell viability, Alamar Blue)” for short) was “positive dose-related activity” and the “inhibition of cell proliferation” value is “equally as potent as at 24 hours”. In addition, in data set [2] (MCF-7, 24 hours, 10^−5 M), the “inhibition of cell proliferation at 10^−5 M” value was “markedly active”. Also, the “binding of I^125-labelled analog to MCF-7 breast cancer cells” value in data set [3] (24 hours of incubation, no exogenous GnRH) is recorded as “specifically bound the MCF-7 breast cancer cells”. In data set [3], the “competitive inhibition of I^125-D-Arg(6)-Chicken II GnRH-aza-Gly(10)-amide binding (rank of potency)” value is recorded as “greatest potency” and the “receptor potency (in words)” value is listed as “increased receptor potency”.

For the compound des-Gly(10)-GnRH ethylamide, the “degradation … (in words)” value in data set [1] is listed as “competitively inhibited the degradation of mammalian GnRH”.

Turning to OH-Pro(9)-GnRH, the “relative potency of inhibition of chorionic post-proline peptidase activity compared to that for GnRH” value in data set [1] is reported as 1.5.

Regarding “Mammalian GnRH: mammalian gonadotropin releasing hormone decapeptide”, the “inhibition of cell proliferation” value in data set [2] is reported as “totally ineffective”. Besides, in data set [3], the “competitive inhibition of I^125-D-Arg(6)-Chicken II GnRH-aza-Gly(10)-amide binding (rank of potency)” value is reported as “weakest competitor”. In addition, the “degradation of mammalian GnRH by the tumor tissue cells” value in data set [4] (after overnight incubation) was around 100%. Moreover, in data set [5], the “degradation … (in words)” value is listed as “actively degraded”.

Im-btl-D-His(6)-GnRH-ethylamide: the “receptor potency (in words)” value in data set [3] is “reduced receptor potency”.

In the case of des-Gly(10)-D-Leu(6)-GnRH ethylamide, in data set [1], the “degradation … (in words)” value is on record as “competitively inhibited the degradation of mammalian GnRH”.

Consider `CCNC(=O)[C@@H]1CCCN1C(=O)[C@H](CCCNC(=N)N)NC(=O)[C@H](CC(C)C)NC(=O)[C@@H](CC(C)C)NC(=O)[C@H](Cc1ccc(O)cc1)NC(=O)[C@H](CO)NC(=O)[C@H](Cc1c[nH]c2ccccc12)NC(=O)[C@H](Cc1c[nH]cn1)NC(=O)[C@@H]1CCC(=O)N1` [Leuprolide], for which, in data set [2], the “inhibition … (cell viability, Alamar Blue)” value was “totally inactive”.

On to des-Gly(10), D-Trp(6)-GnRH ethylamide, for which, in data set [1], the “degradation … (in words)” value is “competitively inhibited the degradation of mammalian GnRH”.

As for `CC[C@H](C)[C@H](N)C1=N[C@H](C(=O)N[C@@H](CC(C)C)C(=O)N[C@H](CCC(=O)O)C(=O)N[C@H](C(=O)N[C@H]2CCCCNC(=O)[C@H](CC(N)=O)NC(=O)[C@@H](CC(=O)O)NC(=O)[C@H](Cc3cnc[nH]3)NC(=O)[C@@H](Cc3ccccc3)NC(=O)[C@H]([C@@H](C)CC)NC(=O)[C@@H](CCCN)NC2=O)[C@@H](C)CC)CS1` [bacitracin] (HELM PEPTIDE1{[CC[C@H](C)[C@H](N)C1=N[C@H](C(=O)[*:2])CS1].L.[dE].I.K.[NCCC[C@@H](N[*:1])C(=O)[*:2]].I.[dF].H.[dD].N}$PEPTIDE1,PEPTIDE1,5:R3-11:R2$$$V2.0), the “inhibition of the degradation of mammalian GnRH in tumor cell extracts” value in data set [4] (specific inhibitors of post-proline peptidase) is “inhibited”.

`CCNC(=O)[C@@H]1CCCN1C(=O)[C@H](CCCNC(=N)N)NC(=O)[C@H](CC(C)C)NC(=O)[C@@H](COC(C)(C)C)NC(=O)[C@H](Cc1ccc(O)cc1)NC(=O)[C@H](CO)NC(=O)[C@H](Cc1c[nH]c2ccccc12)NC(=O)[C@H](Cc1cnc[nH]1)NC(=O)[C@@H]1CCC(=O)N1` [Buserilin]: in data set [1], the “degradation … (in words)” value is recorded as “competitively inhibited the degradation of mammalian GnRH”. For the same compound, the “inhibition … (cell viability, Alamar Blue)” value in data set [2] is “totally inactive”.
